Results from US9732044B2, “N-(pyrid-4-yl)amides and N-(pyrimidin-4-yl)amides and their pharmaceutical and cosmetic use” (GALDERMA RESEARCH & DEVELOPMENT, priority 2011, dated 2017).
Like-named read-outs stand apart in the source and are kept apart here.

Columns and labels:
[1] = target: androgen receptor (AR) (Homo sapiens (Human), UniProt P10275); test: Androgen receptor transactivation test in PALM cell line (cross curves against methyl trienolone); format: cell-based; details: read-out: Kdapp
androgen receptor (AR), sequence (P10275 whole entry): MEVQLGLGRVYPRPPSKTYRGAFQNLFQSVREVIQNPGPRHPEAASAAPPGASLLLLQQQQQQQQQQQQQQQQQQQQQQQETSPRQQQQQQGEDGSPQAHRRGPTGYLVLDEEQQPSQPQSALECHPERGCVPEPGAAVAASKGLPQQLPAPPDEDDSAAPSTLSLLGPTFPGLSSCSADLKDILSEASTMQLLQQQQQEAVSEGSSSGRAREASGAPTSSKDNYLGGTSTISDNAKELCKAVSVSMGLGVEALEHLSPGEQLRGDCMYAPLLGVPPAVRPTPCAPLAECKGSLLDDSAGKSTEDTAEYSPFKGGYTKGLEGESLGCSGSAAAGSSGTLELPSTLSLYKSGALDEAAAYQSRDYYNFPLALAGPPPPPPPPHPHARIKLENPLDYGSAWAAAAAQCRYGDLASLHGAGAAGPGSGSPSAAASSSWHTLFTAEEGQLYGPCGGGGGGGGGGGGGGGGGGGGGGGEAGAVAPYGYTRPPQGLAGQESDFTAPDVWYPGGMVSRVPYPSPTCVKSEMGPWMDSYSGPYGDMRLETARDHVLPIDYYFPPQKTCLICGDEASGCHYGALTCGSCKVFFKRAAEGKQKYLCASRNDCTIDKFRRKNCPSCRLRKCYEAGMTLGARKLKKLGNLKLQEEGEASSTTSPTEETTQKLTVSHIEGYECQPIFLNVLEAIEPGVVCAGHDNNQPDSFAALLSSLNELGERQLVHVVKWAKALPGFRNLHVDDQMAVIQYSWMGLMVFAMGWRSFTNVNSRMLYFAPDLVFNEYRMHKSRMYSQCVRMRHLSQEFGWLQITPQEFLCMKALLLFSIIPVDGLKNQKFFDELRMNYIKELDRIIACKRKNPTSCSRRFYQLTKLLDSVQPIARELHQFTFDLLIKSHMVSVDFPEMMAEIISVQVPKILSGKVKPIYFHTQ
Protocol: This AR inhibiting activity was measured in a transactivation test by the dissociation constants KdR (rest), KdA (active), and Kdapp (apparent).
A compound may be said to be an AR inhibitor if it has a dissociation constant, Kdapp, of less than or equal to 1 μM, and a KdR/KdA ratio of less than or equal to 10 in a transactivation test.
The transactivation test is carried out in the cell line PALM (PC3 androgen receptor Luciferase MMTV), which is a stable transfectant containing the plasmids PMMTV-neo-Luc (reporter gene) and pSG5puro-AR.
In this study, the affinity of each test compound for the 2 states of the receptor (KdR and KdA) is determined together with the apparent Kd (KdApp). This constant depends upon the 2 Kd's (KdR and KdA), but also depends on the initial equilibrium of the receptor between the active state and rest state (L0) and on its expression rate. It is determined by the following formula: 1/KdApp=(L0/(1+L0))×(1/KdR)+(1/(1+L0))×(1/KdA)
In order to determine these constants, “cross curves” of the test compound against a reference agonist, methyl trienolone, are carried out on a 96-well plate. The test compound is used in 10 concentrations and the reference agonist in 7 concentrations.

[2] = tested on: sebaceous gland of the ear of a Syrian hamster; test: In vivo animal model with reduction in the size of the sebaceous glands (Syrian hamster ear); details: 1 g %/mL solution, topical on ear, daily for 24 days, compared to control (absolute ethanol)
Source text: The model of the sebaceous gland of the ear of a Syrian hamster described by Plewig and Luderschmidt in J. Inv. Derm., (1977), pp. 171-176 is a classical tool for the in vivo study of the function of the sebaceous gland. In fact, the inner faces of the ear lobes of the hamster contain a high number of sebaceous glands described as being similar to those of human sebaceous follicles in terms of certain characteristics, including their morphology and response to androgens and anti-androgens. In fact the growth and lipogenesis of the sebaceous glands on the inner face of the ear of Syrian hamsters depend on the androgens. The anti-androgenic activity of test compounds can be easily evaluated by measuring the size of the sebaceous glands. Moreover, this model has been selected to evaluate the efficacy of the antagonists of the receptor to the androgens on the sebaceous gland.
Test compounds were evaluated according to the following protocol: male hamsters aged weeks were treated daily for 24 days on the inner face of the right ear with 30 μL of a solution of the test compound to be evaluated in absolute ethanol. For each test compound, groups were treated with solutions at a range of concentrations (e.g., from 0.01 g %/mL to 3 g %/mL), as well as absolute ethanol used as a control. (A concentration of 3 g %/mL means a concentration of 0.03 g/mL.)
At the end of the study, samples were taken from the treated ears. The skin of the inner face of the ear was separated from the cartilage. Under a binocular magnifying glass, two zones of 4 mm^2 were numbered. The size of the sebaceous glands was measured on the numerical images by manually trimming the glands by means of image analysis software (TINA.20). For each image some twenty glands were measured. The average area of the sebaceous glands was calculated for each treatment group.
A Student t-test for independent groups comparing each dose with vehicle was carried out to compare the average size of the sebaceous glands as a function of the doses applied. When the evolution of the effect is represented graphically as a function of the administered dose of test compound, the curve obtained is sigmoid in shape. In the median part, this sigmoid may be likened to a straight line. The dose corresponding to 50% of the maximum effect corresponds graphically to the point located in the centre of the linear section defined as “effective dose 50”. This DE50 characterises the potency of the test compound.

Row | SMILES | Kd ([1]; threshold lists, PALM cells) [nM] | Reduction of sebaceous glands (following treatment at 1 g %/mL) [2] [%] | Kd ([1]; apparent dissociation constant, PALM cells (PC3 androgen receptor Luciferase MMTV)) [nM]
1 | CCCCC(C)(O)C(=O)Nc1cc(Br)nc(OC)c1 (stereo not shown) [Compound 72A, 2-Hydroxy-2-methyl-hexanoic acid (2-bromo-6-methoxy-pyridin-4-yl)-amide] | ≤ 30 | 48 | 
2 | CCCCC(C)(O)C(=O)Nc1cc(Br)nc(OC)c1 (stereo not shown) [Compound 8, 2-Hydroxy-2-methyl-hexanoic acid (2-bromo-6-methoxy-pyridin-4-yl)-amide] | ≤ 30 | 56 | 30
3 | CCCC(O)(C(=O)Nc1cc(Br)nc(OC)c1)C(C)C (stereo not shown) [Compound 79A, 2-Hydroxy-2-isopropyl-pentanoic acid (2-bromo-6-methoxy-pyridin-4-yl)-amide] | ≤ 30 | 48 | 
4 | COc1cc(NC(=O)C(C)(O)CC(C)C)cc(Br)n1 (single isomer, unassigned) [Compound 71B] | ≤ 30 | 56 | 
5 | CCCC(O)(CC)C(=O)Nc1cc(Br)nc(OC)c1 (stereo not shown) [Compound 19, 2-Ethyl-2-hydroxy-pentanoic acid (2-bromo-6-methoxy-pyridin-4-yl)-amide] | ≤ 30 | 61 | 
6 | CCCC(C)(O)C(=O)Nc1cc(Br)nc(OC)c1 (stereo not shown) [Compound 78B, 2-Hydroxy-2-methyl-pentanoic acid (2-bromo-6-methoxy-pyridin-4-yl)-amide] | ≤ 100 | 50 | 
